Read-outs that look alike come from different tables or passages of the source. Square brackets hold non-standard residues; d marks the D form. Primed or numbered codes have the meaning given here. Ends that are not written are not given here. Peptide text beside a SMILES is read from it. Gla′ = gamma-carboxyglutamate (g in names)
Experiments:
NMDA receptor [1] = target: T1, NMDA receptor (Rattus norvegicus, UniProt P35439+Q00960); assay: biochemical; type: binding
T1 construct: other: test compound in the absence of spermine; concentration at 50% of maximum stimulation; % Sti; spermine = 100; other: with and without spermine; absence of spermine; % STI; absence

NMDA receptor [2] = type: binding, rat
[3] = read-out: IC50, inhibition of spermine-enhanced [3H]MK-801 binding

T1 sequence (Q00960 27-1482, other chains not shown): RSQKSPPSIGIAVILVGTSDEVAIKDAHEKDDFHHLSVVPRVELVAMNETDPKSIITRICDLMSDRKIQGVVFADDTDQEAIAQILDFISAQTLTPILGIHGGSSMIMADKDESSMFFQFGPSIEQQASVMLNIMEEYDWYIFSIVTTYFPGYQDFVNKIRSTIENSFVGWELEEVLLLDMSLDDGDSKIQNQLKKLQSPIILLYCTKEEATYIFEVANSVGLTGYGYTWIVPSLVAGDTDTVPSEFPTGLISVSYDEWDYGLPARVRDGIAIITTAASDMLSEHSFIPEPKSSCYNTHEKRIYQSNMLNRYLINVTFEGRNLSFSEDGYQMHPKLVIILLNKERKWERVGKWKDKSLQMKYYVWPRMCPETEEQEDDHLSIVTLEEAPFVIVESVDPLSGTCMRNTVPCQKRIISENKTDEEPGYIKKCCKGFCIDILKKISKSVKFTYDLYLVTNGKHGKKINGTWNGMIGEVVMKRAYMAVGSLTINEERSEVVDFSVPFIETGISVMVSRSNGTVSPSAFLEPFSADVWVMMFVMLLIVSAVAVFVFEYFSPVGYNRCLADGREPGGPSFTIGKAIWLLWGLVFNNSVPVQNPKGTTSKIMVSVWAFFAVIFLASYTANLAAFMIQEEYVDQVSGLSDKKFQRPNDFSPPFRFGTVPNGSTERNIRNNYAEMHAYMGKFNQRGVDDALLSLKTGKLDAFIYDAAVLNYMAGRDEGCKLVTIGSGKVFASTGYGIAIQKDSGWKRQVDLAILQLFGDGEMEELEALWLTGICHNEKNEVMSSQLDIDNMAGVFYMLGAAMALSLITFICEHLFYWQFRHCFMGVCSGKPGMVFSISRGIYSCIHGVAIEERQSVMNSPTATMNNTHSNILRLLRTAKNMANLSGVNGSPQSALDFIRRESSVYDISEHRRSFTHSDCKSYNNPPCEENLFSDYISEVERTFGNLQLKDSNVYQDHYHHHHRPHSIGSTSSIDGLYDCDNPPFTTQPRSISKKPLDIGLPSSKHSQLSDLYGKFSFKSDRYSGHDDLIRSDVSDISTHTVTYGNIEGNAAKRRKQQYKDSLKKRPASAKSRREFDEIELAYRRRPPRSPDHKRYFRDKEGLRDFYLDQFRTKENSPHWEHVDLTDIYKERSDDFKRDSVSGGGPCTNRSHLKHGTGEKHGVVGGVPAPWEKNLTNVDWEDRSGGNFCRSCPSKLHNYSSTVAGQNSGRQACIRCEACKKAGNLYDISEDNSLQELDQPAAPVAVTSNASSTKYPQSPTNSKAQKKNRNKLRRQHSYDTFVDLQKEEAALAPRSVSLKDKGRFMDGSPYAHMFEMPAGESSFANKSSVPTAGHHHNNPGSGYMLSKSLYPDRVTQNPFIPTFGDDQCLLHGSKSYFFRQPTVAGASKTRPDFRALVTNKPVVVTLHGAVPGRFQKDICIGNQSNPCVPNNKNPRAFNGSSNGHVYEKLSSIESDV

CC[C@H](C)[C@H](NC(=O)[C@H](CCC(N)=O)NC(=O)[C@H](CO)NC(=O)[C@@H](NC(=O)[C@H](CC(N)=O)NC(=O)[C@H](CO)NC(=O)[C@H](CCC(N)=O)NC(=O)[C@H](CC(C)C)NC(=O)[C@H](CC(C(=O)O)C(=O)O)NC(=O)[C@H](CC(C(=O)O)C(=O)O)NC(=O)[C@H](CCC(=O)O)NC(=O)CN)C(C)C)C(=O)N[C@@H](CCCNC(=N)N)C(=O)N[C@@H](C)C(=O)N[C@@H](CCCCN)C(=O)N[C@@H](CO)C(=O)N[C@@H](CC(N)=O)C(N)=O [310 helix ConG] (HELM PEPTIDE1{G.E.[O=C(O)C(C[C@H](N[*:1])C(=O)[*:2])C(=O)O].[O=C(O)C(C[C@H](N[*:1])C(=O)[*:2])C(=O)O].L.Q.S.N.V.S.Q.I.R.A.K.S.N.[am]}$$$$V2.0)
Emax (NMDA receptor [1]; read-out: % Sti): 0% | % Inh (NMDA receptor [2]): 25% | IC50 (NMDA receptor [2]; read-out: Spermine IC): 20 µM

CC[C@H](C)[C@H](NC(=O)[C@H](CC(C)C)NC(=O)[C@H](C)NC(=O)[C@H](CCC(N)=O)NC(=O)[C@H](CC(N)=O)NC(=O)[C@H](CC(C(=O)O)C(=O)O)NC(=O)[C@H](CCC(N)=O)NC(=O)[C@H](CC(C)C)NC(=O)[C@H](CC(C(=O)O)C(=O)O)NC(=O)[C@H](CC(C(=O)O)C(=O)O)NC(=O)[C@H](CCC(=O)O)NC(=O)CN)C(=O)N[C@@H](CCCNC(=N)N)C(=O)N[C@@H](CC(C(=O)O)C(=O)O)C(=O)N[C@@H](CCCCN)C(=O)N[C@@H](CO)C(=O)N[C@@H](CC(N)=O)C(N)=O [Ala10-Con-G, GEggLQgNQALIRgKSN]
Emax (NMDA receptor [1]; read-out: % Sti): 0% | % Inh (NMDA receptor [2]): 100% | IC50 (NMDA receptor [2]; read-out: Spermine IC): 1.1 ± 0.3 µM

CC[C@H](C)[C@H](NC(=O)[C@H](CC(C)C)NC(=O)[C@H](CC(C(=O)O)C(=O)O)NC(=O)[C@H](CCC(N)=O)NC(=O)[C@H](CC(N)=O)NC(=O)[C@H](CC(C(=O)O)C(=O)O)NC(=O)[C@H](CCC(N)=O)NC(=O)[C@H](CC(C)C)NC(=O)[C@H](CC(C(=O)O)C(=O)O)NC(=O)[C@H](CC(C(=O)O)C(=O)O)NC(=O)[C@H](CCC(=O)O)NC(=O)CNC(=O)[C@@H](N)CC(=O)N[C@@H]1O[C@H](CO)[C@@H](O)[C@H](O)[C@H]1NC(C)=O)C(=O)N[C@@H](CCCNC(=N)N)C(=O)N[C@@H](CC(C(=O)O)C(=O)O)C(=O)N[C@@H](CCCCN)C(=O)N[C@@H](CO)C(=O)N[C@@H](CC(N)=O)C(N)=O [Asn(GlcNAc)^o-Con-G, N(GlcOc)-GEggLQgNQgLIRgKSN]
% Sti (NMDA receptor [1]; forebrain membranes): 0% | % Inh (NMDA receptor [2]): 38% | IC50 (NMDA receptor [2]; read-out: Spermine IC): 8.8 µM

CC[C@H](C)[C@H](NC(=O)[C@H](CC(C)C)NC(=O)[C@@H](CCC(=O)O)NC(=O)[C@H](CCC(N)=O)NC(=O)[C@H](CC(N)=O)NC(=O)[C@@H](CCC(=O)O)NC(=O)[C@H](CCC(N)=O)NC(=O)[C@H](CC(C)C)NC(=O)[C@@H](CCC(=O)O)NC(=O)[C@@H](CCC(=O)O)NC(=O)[C@@H](CCC(=O)O)NC(=O)CN)C(=O)N[C@@H](CCCNC(=N)N)C(=O)N[C@H](CCC(=O)O)C(=O)N[C@@H](CCCCN)C(=O)N[C@@H](CO)C(=O)N[C@@H](CC(N)=O)C(N)=O [D-Glu3,4,7,10,14-Con-G, GdEdEdELQdENQdELIRdEKSN]
stimulation of [3H]MK-801 binding in the absence of spermine (NMDA receptor [1]): stimulated | Emax (NMDA receptor [1]; read-out: % Sti): 30% | % Inh (NMDA receptor [2]): 0% | inhibition of spermine-induced [3H]MK-801 binding (NMDA receptor [2]): no inhibition

CC[C@H](C)[C@H](NC(=O)[C@H](CC(C)C)NC(=O)[C@H](CCC(=O)O)NC(=O)[C@H](CCC(N)=O)NC(=O)[C@H](CC(N)=O)NC(=O)[C@H](CCC(=O)O)NC(=O)[C@H](CCC(N)=O)NC(=O)[C@H](CC(C)C)NC(=O)[C@H](CCC(=O)O)NC(=O)[C@H](CCC(=O)O)NC(=O)[C@H](CCC(=O)O)NC(=O)CN)C(=O)N[C@@H](CCCNC(=N)N)C(=O)N[C@@H](CCC(=O)O)C(=O)N[C@@H](CCCCN)C(=O)N[C@@H](CO)C(=O)N[C@@H](CC(N)=O)C(N)=O [Glu3,4,7,10,14-Con-G]
Emax (NMDA receptor [1]; read-out: % STI): 79% | Emax (NMDA receptor [1]; read-out: % Sti): 79% | % INH (NMDA receptor [2]): 22% | % Inh (NMDA receptor [2]): 22% | IC50 (NMDA receptor [2]; read-out: IC50): 8.5 µM | IC50 (NMDA receptor [2]; read-out: Spermine IC): 8.5 µM

CC[C@H](C)[C@H](N)C(=O)N[C@@H](CCCNC(=N)N)C(=O)N[C@@H](CCC(=O)O)C(=O)N[C@@H](CCCCN)C(=O)N[C@@H](CO)C(=O)N[C@@H](CC(N)=O)C(N)=O [Glul4-Con-G(12-17), IREKSN]
stimulation of [3H]MK-801 binding in the absence of spermine (NMDA receptor [1]): stimulated | Emax (NMDA receptor [1]; read-out: % Sti): 30% | % Inh (NMDA receptor [2]): 0% | inhibition of spermine-induced [3H]MK-801 binding (NMDA receptor [2]): no inhibition

CC[C@H](C)[C@H](NC(=O)[C@H](CC(C)C)NC(=O)[C@H](CO)NC(=O)[C@H](CCC(N)=O)NC(=O)[C@H](CC(N)=O)NC(=O)[C@H](CC(C(=O)O)C(=O)O)NC(=O)[C@H](CCC(N)=O)NC(=O)[C@H](CC(C)C)NC(=O)[C@H](CC(C(=O)O)C(=O)O)NC(=O)[C@H](CC(C(=O)O)C(=O)O)NC(=O)[C@H](CCC(=O)O)NC(=O)CN)C(=O)N[C@@H](CCCNC(=N)N)C(=O)N[C@@H](CC(C(=O)O)C(=O)O)C(=O)N[C@@H](CCCCN)C(=O)N[C@@H](CO)C(=O)N[C@@H](CC(N)=O)C(N)=O [Ser10-Con-G, GEggLQgNQSLIRgKSN]
Emax (NMDA receptor [1]; read-out: % Sti): 0% | % Inh (NMDA receptor [2]): 100% | IC50 (NMDA receptor [2]; read-out: Spermine IC): 1.8 ± 0.2 µM

CC[C@H](C)[C@H](NC(=O)[C@H](CC(C)C)NC(=O)[C@H](CC(C(=O)O)C(=O)O)NC(=O)[C@H](CCC(N)=O)NC(=O)[C@H](CC(N)=O)NC(=O)[C@H](CC(C(=O)O)C(=O)O)NC(=O)[C@H](CCC(N)=O)NC(=O)[C@H](CC(C)C)NC(=O)[C@H](CC(C(=O)O)C(=O)O)NC(=O)[C@H](COP(=O)(O)O)NC(=O)[C@H](CCC(=O)O)NC(=O)CN)C(=O)N[C@@H](CCCNC(=N)N)C(=O)N[C@@H](CC(C(=O)O)C(=O)O)C(=O)N[C@@H](CCCCN)C(=O)N[C@@H](CO)C(=O)N[C@@H](CC(N)=O)C(N)=O [Ser(p)3-Con-G, GES(p)gLQgNQgLJRgKSN]
% STI (NMDA receptor [1]; forebrain membranes): 68 ± 8.4% | % Sti (NMDA receptor [1]; forebrain membranes): 68 ± 8.4% | % INH (NMDA receptor [2]): 34 ± 2.3% | % Inh (NMDA receptor [2]): 34 ± 2.3%

CC[C@H](C)[C@H](NC(=O)[C@H](CC(C)C)NC(=O)[C@H](CC(C(=O)O)C(=O)O)NC(=O)[C@H](CCC(N)=O)NC(=O)[C@H](CC(N)=O)NC(=O)[C@H](COP(=O)(O)O)NC(=O)[C@H](CCC(N)=O)NC(=O)[C@H](CC(C)C)NC(=O)[C@H](CC(C(=O)O)C(=O)O)NC(=O)[C@H](CC(C(=O)O)C(=O)O)NC(=O)[C@H](CCC(=O)O)NC(=O)CN)C(=O)N[C@@H](CCCNC(=N)N)C(=O)N[C@@H](CC(C(=O)O)C(=O)O)C(=O)N[C@@H](CCCCN)C(=O)N[C@@H](CO)C(=O)N[C@@H](CC(N)=O)C(N)=O [Ser(p)7-Con-G, GEggLQS(p)NQgLIRgKSN]
% Sti (NMDA receptor [1]; forebrain membranes): 0% | % Inh (NMDA receptor [2]): 50±3.8% | inhibition of [3H]MK-801 binding produced by maximally effective spermine (NMDA receptor [2]): 50% | IC50 (NMDA receptor [2]; [3]): 1.04 ± 0.3 µM

CC[C@H](C)[C@H](NC(=O)[C@H](CC(C)C)NC(=O)[C@H](COP(=O)(O)O)NC(=O)[C@H](CCC(N)=O)NC(=O)[C@H](CC(N)=O)NC(=O)[C@H](CC(C(=O)O)C(=O)O)NC(=O)[C@H](CCC(N)=O)NC(=O)[C@H](CC(C)C)NC(=O)[C@H](CC(C(=O)O)C(=O)O)NC(=O)[C@H](CC(C(=O)O)C(=O)O)NC(=O)[C@H](CCC(=O)O)NC(=O)CN)C(=O)N[C@@H](CCCNC(=N)N)C(=O)N[C@@H](CC(C(=O)O)C(=O)O)C(=O)N[C@@H](CCCCN)C(=O)N[C@@H](CO)C(=O)N[C@@H](CC(N)=O)C(N)=O [Ser(p)10-Con-G, GEggLQgNQS(p)LIRgKSN]
% Sti (NMDA receptor [1]; forebrain membranes): 0% | % Inh (NMDA receptor [2]): 100% | IC50 (NMDA receptor [2]; [3]): 0.56 ± 0.2 µM

CC[C@H](C)[C@H](NC(=O)[C@H](CC(C)C)NC(=O)[C@H](CC(C(=O)O)C(=O)O)NC(=O)[C@H](CCC(N)=O)NC(=O)[C@H](CC(N)=O)NC(=O)[C@H](CC(C(=O)O)C(=O)O)NC(=O)[C@H](CCC(N)=O)NC(=O)[C@H](CC(C)C)NC(=O)[C@H](CC(C(=O)O)C(=O)O)NC(=O)[C@H](CC(C(=O)O)C(=O)O)NC(=O)[C@H](CCC(=O)O)NC(=O)CN)C(=O)N[C@@H](CCCNC(=N)N)C(=O)N[C@@H](COP(=O)(O)O)C(=O)N[C@@H](CCCCN)C(=O)N[C@@H](CO)C(=O)N[C@@H](CC(N)=O)C(N)=O [Ser(p)14-Con-G, GEggLQgNQgLIRS(p)KSN]
% Sti (NMDA receptor [1]; forebrain membranes): 0% | % Inh (NMDA receptor [2]): 31 ± 0.5% | inhibition of [3H]MK-801 binding produced by maximally effective spermine (NMDA receptor [2]): 31% | IC50 (NMDA receptor [2]; [3]): 1.12 ± 0.05 µM

NCCCCNCCCN [Spermidine, reference compound]
Emax (NMDA receptor [1]; read-out: % Sti): 97% | % Inh (NMDA receptor [2]): 0%

NCCCNCCCCNCCCN [Spermine, reference compound]
% Sti (NMDA receptor [1]; forebrain membranes): 100% | % Inh (NMDA receptor [2]): 0%

GEggL-AA-gKSN (GEXXLAAXKSN; gamma-carboxyglutamate residues) [ConG(1-5)AA(14-17)]
% Sti (NMDA receptor [1]): 0%

GEggL-AAA-gKSN (GEXXLAAAXKSN; gamma-carboxyglutamate residues) [ConG(1-5)AAAA(14-17)]
% Sti (NMDA receptor [1]): 0%

GEggL-BB-gKSN [ConG(1-5)BB(14-17)]
% Sti (NMDA receptor [1]): 0%

GEggL-GG-gKSN (GEXXLGGXKSN; gamma-carboxyglutamate residues) [ConG(1-5)GG(14-17)]
% Sti (NMDA receptor [1]): 0%

GEggL-GGGG-gKSN (GEXXLGGGGXKSN; gamma-carboxyglutamate residues) [ConG(1-5)GGGG(14-17)]
% Sti (NMDA receptor [1]): 0%

GEggL-cyclic (GEXXL; cyclic; gamma-carboxyglutamate residues) [Cyclic ConG(1-5)]
activity in [3H]MK-801 binding (spanning cell of Table II) (NMDA receptor [1]): inactive

GEggLQ-AAAAA-gKSN (GE[Gla′][Gla′]LQAAAAA[Gla′]KSN) [ConG(1-6)AS(14-17)]
% Sti (NMDA receptor [1]): 0%

GEggLQ-AAAAAAA-gKSN (GE[Gla′][Gla′]LQAAAAAAA[Gla′]KSN) [ConG(1-6)A7(14-17)]
% Sti (NMDA receptor [1]): 0%

IAEASN [Ala13,15, Glul4-Con-G(12-17)]
activity in [3H]MK-801 binding (spanning cell of Table II) (NMDA receptor [1]): inactive

IAEKSN [Ala13, Glul4-Con-G(12-17)]
activity in [3H]MK-801 binding (spanning cell of Table II) (NMDA receptor [1]): inactive

IREASN [Glu 14, Alal5-Con-G(12-17)]
activity in [3H]MK-801 binding (spanning cell of Table II) (NMDA receptor [1]): inactive

RSgNK (RS[Gla′]NK) [scrambled Con-G]
activity in [3H]MK-801 binding (spanning cell of Table II) (NMDA receptor [1]): inactive

RgKSN (R[Gla′]KSN) [Con-G(13-17)]
activity in [3H]MK-801 binding (spanning cell of Table II) (NMDA receptor [1]): inactive

From patent publication US6511963B1 (priority 1992, dated 2003)
